Here are results for one compound from patent publication US20160264593A1 (priority 2013, published 2016).

In one data set the test system is human cancer cell lines. The experiment in a line: IC50 for a broad spectrum of human cancer cell lines. It is filed as cell-based.
Data set [1] in a line: Microsomal stability, dog microsomes. The class given is in vitro ADME. The conditions noted are these: relative to verapamil.
For data set [2] the following is noted: in vivo.

As usually defined, the IC50 is the concentration at which inhibition is half-maximal. A high value points to lower potency.

In turn, `CN1CCN(C(=O)C2C3CCC(O3)C2C(=O)O)CC1` (stereo not drawn) [Compound 100, 3-(4-methylpiperazine-1-carbonyl)-7-oxa-bicyclo[2,2,1]-heptane-2-carboxylic acid] registered an IC50 in the data set with human cancer cell lines of 1000 to 3000 nM. Besides, the “stability in the presence of microsomes” value in data set [1] is “stable relative to verapamil”. For the same compound, in data set [2], the “passage of the blood brain barrier (BBB) (statement)” value is “does not readily pass the blood brain barrier”.
